Test system: 931267-113-T-J1-PDC KRAS spheroid with HUVEC/MSC, viability
Experiment: Anticancer human tumor 931267-113-T-J1-PDC patient-derived colon adenocarcinoma cell line growth inhibition [KRAS2]
Conditions: for IC50: curve of first compound; for viability, T/C: stronger effect = lower value
In short: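 Combination screen of spheroid viability in tumor-cell co-cultures with endothelial (HUVEC) and mesenchymal stem cell stroma. Each agent was tested in half-log dilutions, topping at clinical Cmax or at 10 microM without a known Cmax.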

[1] = second compound 0.1 µM, first compound 0.000316 µM
[2] = second compound 0.1 µM, first compound 0.001 µM
[3] = second compound 0.1 µM, first compound 0.00316 µM
[4] = second compound 0.1 µM, first compound 0.01 µM
[5] = second compound 0.1 µM, first compound 0.0316 µM
[6] = second compound 0.316 µM, first compound 0.000316 µM
[7] = second compound 0.316 µM, first compound 0.001 µM
[8] = second compound 0.316 µM, first compound 0.00316 µM
[9] = second compound 0.316 µM, first compound 0.01 µM
[10] = second compound 0.316 µM, first compound 0.0316 µM
[11] = second compound 1 µM, first compound 0.000316 µM
[12] = second compound 1 µM, first compound 0.001 µM
[13] = second compound 1 µM, first compound 0.00316 µM
[14] = second compound 1 µM, first compound 0.01 µM
[15] = second compound 1 µM, first compound 0.0316 µM
[16] = second compound 3.16 µM, first compound 0.000316 µM
[17] = second compound 3.16 µM, first compound 0.001 µM
[18] = second compound 3.16 µM, first compound 0.00316 µM
[19] = second compound 3.16 µM, first compound 0.01 µM
[20] = second compound 3.16 µM, first compound 0.0316 µM
[21] = second compound 10 µM, first compound 0.000316 µM
[22] = second compound 10 µM, first compound 0.001 µM
[23] = second compound 10 µM, first compound 0.00316 µM
[24] = second compound 10 µM, first compound 0.01 µM
[25] = second compound 10 µM, first compound 0.0316 µM
[26] = second compound 0.1 µM, first compound 0.1 µM
[27] = second compound 0.316 µM, first compound 0.1 µM
[28] = second compound 1 µM, first compound 0.1 µM
[29] = second compound 3.16 µM, first compound 0.1 µM
[30] = second compound 10 µM, first compound 0.1 µM
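Further: compound exposure lasted 7 days before the readout.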
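Wherever viability, T/C is given: 100% = DMSO vehicle control viability.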

CC(=O)Nc1cccc(-n2c(=O)n(C3CC3)c(=O)c3c(Nc4ccc(I)cc4F)n(C)c(=O)c(C)c32)c1 + COc1cc2nc(C)nc(NC(C)c3cc(N)cc(C(F)(F)F)c3)c2cc1OC1CCOC1
IC50 (second compound 0.1 µM): 10.3 nM | IC50 (second compound 0.316 µM): 5.76 nM | IC50 (second compound 1 µM): 9.82 nM | IC50 (second compound 3.16 µM): 7.73 nM | IC50 (second compound 10 µM): < 0.1 nM | viability, T/C (second compound 0.1 µM, first compound 0.0001 µM): 75.8% | viability, T/C [1]: 75.3% | viability, T/C [2]: 77.1% | viability, T/C [3]: 72.5% | viability, T/C [4]: 51% | viability, T/C [5]: 15.7% | viability, T/C (second compound 0.316 µM, first compound 0.0001 µM): 76.9% | viability, T/C [6]: 60.6% | viability, T/C [7]: 64.8% | viability, T/C [8]: 51.3% | viability, T/C [9]: 50% | viability, T/C [10]: 13.7% | viability, T/C (second compound 1 µM, first compound 0.0001 µM): 87% | viability, T/C [11]: 71.7% | viability, T/C [12]: 73.8% | viability, T/C [13]: 66.1% | viability, T/C [14]: 52.1% | viability, T/C [15]: 14.1% | viability, T/C (second compound 3.16 µM, first compound 0.0001 µM): 91.3% | viability, T/C [16]: 82.1% | viability, T/C [17]: 75.1% | viability, T/C [18]: 59.5% | viability, T/C [19]: 52% | viability, T/C [20]: 19.6% | viability, T/C (second compound 10 µM, first compound 0.0001 µM): 21.4% | viability, T/C [21]: 37.6% | viability, T/C [22]: 20.4% | viability, T/C [23]: 2.31% | viability, T/C [24]: 14.3% | viability, T/C [25]: 1.54%

CN(C)C/C=C/C(=O)Nc1cc2c(Nc3ccc(F)c(Cl)c3)ncnc2cc1O[C@H]1CCOC1 + COc1cc2nc(C)nc(NC(C)c3cc(N)cc(C(F)(F)F)c3)c2cc1OC1CCOC1
IC50 (second compound 0.1 µM): > 100 nM | IC50 (second compound 0.316 µM): > 100 nM | IC50 (second compound 1 µM): > 100 nM | IC50 (second compound 3.16 µM): > 100 nM | IC50 (second compound 10 µM): > 100 nM | viability, T/C [1]: 96.2% | viability, T/C [2]: 92.8% | viability, T/C [3]: 75.7% | viability, T/C [4]: 87.5% | viability, T/C [5]: 103% | viability, T/C [26]: 116% | viability, T/C [6]: 81.8% | viability, T/C [7]: 75% | viability, T/C [8]: 90.3% | viability, T/C [9]: 87.6% | viability, T/C [10]: 85.2% | viability, T/C [27]: 93.5% | viability, T/C [11]: 87.7% | viability, T/C [12]: 92.5% | viability, T/C [13]: 104% | viability, T/C [14]: 89.8% | viability, T/C [15]: 100% | viability, T/C [28]: 94% | viability, T/C [16]: 72.8% | viability, T/C [17]: 72.8% | viability, T/C [18]: 88.1% | viability, T/C [19]: 74.9% | viability, T/C [20]: 97.2% | viability, T/C [29]: 108% | viability, T/C [21]: 69.6% | viability, T/C [22]: 78.8% | viability, T/C [23]: 77% | viability, T/C [24]: 88.6% | viability, T/C [25]: 102% | viability, T/C [30]: 83.7%

COC(=O)c1ccc2c(C(=Nc3ccc(N(C)C(=O)CN4CCN(C)CC4)cc3)c3ccccc3)c(O)[nH]c2c1 + COc1cc2nc(C)nc(NC(C)c3cc(N)cc(C(F)(F)F)c3)c2cc1OC1CCOC1
IC50 (second compound 0.1 µM): 1410 nM | IC50 (second compound 0.316 µM): 962 nM | IC50 (second compound 1 µM): 513 nM | IC50 (second compound 3.16 µM): 637 nM | IC50 (second compound 10 µM): < 31.6 nM | viability, T/C [5]: 88.1% | viability, T/C [26]: 97.5% | viability, T/C (second compound 0.1 µM, first compound 0.316 µM): 69.8% | viability, T/C (second compound 0.1 µM, first compound 1 µM): 71.1% | viability, T/C (second compound 0.1 µM, first compound 3.16 µM): 0.65% | viability, T/C (second compound 0.1 µM, first compound 10 µM): 0.3% | viability, T/C [10]: 77.5% | viability, T/C [27]: 68.3% | viability, T/C (second compound 0.316 µM, first compound 0.316 µM): 55.2% | viability, T/C (second compound 0.316 µM, first compound 1 µM): 50% | viability, T/C (second compound 0.316 µM, first compound 3.16 µM): 0.3% | viability, T/C (second compound 0.316 µM, first compound 10 µM): 0.83% | viability, T/C [15]: 73% | viability, T/C [28]: 95.2% | viability, T/C (second compound 1 µM, first compound 0.316 µM): 57.6% | viability, T/C (second compound 1 µM, first compound 1 µM): 33.5% | viability, T/C (second compound 1 µM, first compound 3.16 µM): 0.48% | viability, T/C (second compound 1 µM, first compound 10 µM): 0.34% | viability, T/C [20]: 95.6% | viability, T/C [29]: 88.3% | viability, T/C (second compound 3.16 µM, first compound 0.316 µM): 78.2% | viability, T/C (second compound 3.16 µM, first compound 1 µM): 32.5% | viability, T/C (second compound 3.16 µM, first compound 3.16 µM): 0.32% | viability, T/C (second compound 3.16 µM, first compound 10 µM): 0.26% | viability, T/C [25]: 7.41% | viability, T/C [30]: 2.82% | viability, T/C (second compound 10 µM, first compound 0.316 µM): 0.58% | viability, T/C (second compound 10 µM, first compound 1 µM): 0.41% | viability, T/C (second compound 10 µM, first compound 3.16 µM): 0.41% | viability, T/C (second compound 10 µM, first compound 10 µM): 0.26%
